Measured values from PubChem BioAssay (NCI).
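Test compounds were applied to cells in 96-well plates for 48 hours at 5 doses. TGI: concentration producing complete growth inhibition.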

How the values were obtained:
Test in all cases: NCI-60 cell line screen, 48 h
786-0 renal = test system: 786-0 renal
A498 renal = test system: A498 renal
ACHN renal = test system: ACHN renal
CCRF-CEM leukemia = test system: CCRF-CEM leukemia
COLO 205 colon = test system: COLO 205 colon
HCT-15 colon = test system: HCT-15 colon
HOP-62 NSCLC = test system: HOP-62 NSCLC
HT29 colon = test system: HT29 colon
KM12 colon = test system: KM12 colon
MDA-MB-435 = test system: MDA-MB-435
MDA-N = test system: MDA-N
MOLT-4 leukemia = test system: MOLT-4 leukemia
NCI-H226 lung = test system: NCI-H226 lung
NCI-H460 lung = test system: NCI-H460 lung
NCI-H522 lung = test system: NCI-H522 lung
SF-295 CNS = test system: SF-295 CNS
SK-MEL-5 melanoma = test system: SK-MEL-5 melanoma
SNB-75 CNS = test system: SNB-75 CNS
SW-620 colon = test system: SW-620 colon
TK-10 renal = test system: TK-10 renal

| SMILES | TGI (786-0 renal) [µM] | TGI (A498 renal) [µM] | TGI (ACHN renal) [µM] | TGI (CCRF-CEM leukemia) [µM] | TGI (COLO 205 colon) [µM] | TGI (HCT-15 colon) [µM] | TGI (HOP-62 NSCLC) [µM] | TGI (HT29 colon) [µM] | TGI (KM12 colon) [µM] | TGI (MDA-MB-435) [µM] | TGI (MDA-N) [µM] | TGI (MOLT-4 leukemia) [µM] | TGI (NCI-H226 lung) [µM] | TGI (NCI-H460 lung) [µM] | TGI (NCI-H522 lung) [µM] | TGI (SF-295 CNS) [µM] | TGI (SK-MEL-5 melanoma) [µM] | TGI (SNB-75 CNS) [µM] | TGI (SW-620 colon) [µM] | TGI (TK-10 renal) [µM] |
| --- | --- | --- | --- | --- | --- | --- | --- | --- | --- | --- | --- | --- | --- | --- | --- | --- | --- | --- | --- | --- |
| C[C@@H](NC(=O)OC1C=CC2(CC1)C(=O)N(C)c1ccccc12)c1cccc2ccccc12 (stereo partly specified) | > 25 | > 25 | > 25 | > 25 | > 25 | > 25 | > 25 | > 25 | > 25 | > 25 | > 25 | > 25 | > 25 | > 25 | > 25 | > 25 | > 25 | > 25 | > 25 | > 25 |
| CN(C)CCCNc1nnc(NCCCN(C)C)c2c(=O)c3sccc3[nH]c12 | > 49.1 | > 100 | > 100 | > 50.2 | > 20.2 | > 91.5 | > 100 |  | > 58.3 | > 54.7 | 14.9 | 14.4 | 39.1 | 20.7 | 17.3 | > 54 | 16 | 19.6 | > 72.2 | > 100 |
| COC(=O)C(Cc1ccccc1I)C1=CCC2(CC1)OCCO2 (stereo unspecified) | > 100 | > 100 | > 100 | 81 | 63 | > 100 | > 100 | > 100 | 76.2 | 44.8 | 67.4 | 56.8 | > 100 | > 100 | 53.7 | > 100 | 34.1 | 57.4 | > 100 | > 100 |
| COP1(=O)NCc2ncccc2O1 (stereo unspecified) | > 100 | > 100 | > 100 | > 100 | > 100 | > 100 | > 100 | > 100 | > 100 | > 100 | > 100 | > 100 | > 100 | > 100 |  | > 100 | > 100 | > 100 | > 100 |  |
| COc1cc2c(cc1OC)C1(c3ccccc3)CN(C2)Cc2cc(OC)c(OC)cc21 | > 100 | > 100 | > 100 | 61.4 | 34.2 | > 100 | > 100 | > 100 | > 100 | 54.8 | > 100 | 84.7 | 91.4 | > 100 | > 100 | > 100 | 53.3 | 92.3 | > 100 | > 100 |
| CCCCCC(=O)OCC1(CO)C/C(=C\CC(C(C)C)C(C)C)C(=O)O1 (stereo unspecified) | > 100 | > 100 | > 100 | > 100 | 53.5 | > 100 | > 100 | > 100 | > 100 | > 100 | > 100 | 61.8 | > 100 | > 100 | 81.3 | > 100 | > 100 | > 100 | 64.4 | > 100 |
| c1ccc2c3c([nH]c2c1)C1c2[nH]c4ccccc4c2CCN1CC3 | 25.8 | 34.4 | 27.1 | > 100 | 35.2 | 26.9 | 27.8 | 26.7 | 41.3 | 33.5 | 35.6 | 42.1 | 37.6 | 24.3 | 28.6 | 34.3 | 28 | 38.8 | 45.5 | 23.2 |
| Cc1ccc2c(c1)[nH]c(=S)n2C=C1C(=O)CC(C)(C)CC1=O | > 100 | > 100 | > 100 | > 100 | > 100 | > 100 | > 100 | > 100 | > 100 | > 100 | > 100 | > 100 | > 100 | > 100 | > 100 | > 100 | > 100 | > 100 | > 100 | > 100 |
| CC(C)N=C(NC#N)NS(=O)(=O)c1cnccc1Nc1ccc(Cl)cc1 | > 100 | > 100 | > 100 | > 100 | > 100 | > 100 | > 100 | > 100 | > 100 | > 100 | > 100 | > 100 | > 100 |  | > 100 | > 100 | > 100 | > 100 | > 100 | > 100 |
| COC(=O)NN=C(c1ccc(Cl)cc1)c1ccc(Cl)cc1 | > 100 | > 100 |  | > 100 | > 100 | > 100 |  | > 100 | > 100 | > 100 | > 100 | > 100 | > 100 | > 100 | > 100 |  | > 100 | > 100 | > 100 | > 100 |
| Cc1ccc2c(=O)c(-c3nnc(N)s3)c[nH]c2n1 | > 100 | > 100 | > 100 | > 100 | > 100 | > 100 | > 100 | > 100 | > 100 | > 100 | > 100 | > 100 | > 100 | > 100 | > 100 | > 100 | > 100 |  | > 100 | > 100 |
| O=C(Nc1nc2ccc([N+](=O)[O-])cc2[n+]([O-])n1)C(F)(F)F | > 100 | 65.5 | 90.8 | > 100 | > 100 | 98.8 |  | > 100 | > 100 | 32 | 34 | 81.6 | > 100 | > 100 | > 100 | > 100 | 25.3 | > 100 | > 100 | > 100 |
